These results are taken from patent US10898481B2 (priority 2018, dated 2021).

The target in experiment [1] is hADORA1/CHO (hA1 expressing) cells (Homo sapiens (Human), UniProt P30542). Nature of the experiment: cell-based. The conditions noted are these: FLIPR inhibition, 10 μM adenosine, read-out: cAMP & FLIPR IC50 (nM) hA1.
The target of experiment [2] is hA2a/CHO (Homo sapiens (Human), UniProt P29274). The experiment in a line: cAMP inhibition assay in hA2a/CHO cells, 10 μM adenosine.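 Further: compounds added to cells 30 min ahead of adenosine, then a further 30 min at 37 °C with adenosine before cAMP detection.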 It counts as cell-based. The conditions noted are these: read-out: cAMP & FLIPR IC50 (nM) hA2a.
Sequence of hA2a/CHO (P29274 whole entry): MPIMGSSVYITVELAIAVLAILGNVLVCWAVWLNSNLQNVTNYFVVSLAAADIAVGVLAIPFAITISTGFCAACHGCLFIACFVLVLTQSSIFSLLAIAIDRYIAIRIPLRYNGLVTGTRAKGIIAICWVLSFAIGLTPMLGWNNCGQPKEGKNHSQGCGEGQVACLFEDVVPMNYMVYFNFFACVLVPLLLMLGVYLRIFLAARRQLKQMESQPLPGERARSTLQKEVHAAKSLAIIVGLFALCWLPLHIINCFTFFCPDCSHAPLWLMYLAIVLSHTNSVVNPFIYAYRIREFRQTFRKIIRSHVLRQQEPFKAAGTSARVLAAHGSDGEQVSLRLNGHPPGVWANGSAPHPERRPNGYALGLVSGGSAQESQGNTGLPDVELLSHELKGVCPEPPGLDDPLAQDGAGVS
Method: (§1) hA2a/CHO, hA2b/CHO, hA3/CHO and mA2a/CHO (Genscript) were plated at 5×10^3 cells/well into 384-well polystyrene plates at the day of experiment. Compounds were pre-incubated with cells for 30 min at 37° C., 5% CO2. Then 10 μM adenosine was added to the cells and incubated for 30 min at 37° C., 5% CO2. Detection reagent (CISBIO) was added and the plates were incubated for 60 min at room temperature. The signal was captured by Envision.
Experiment [3] deals with hA2b/CHO (Homo sapiens (Human), UniProt P29275). The experiment in a line: cAMP inhibition assay in hA2b/CHO cells, 10 μM adenosine.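 Further: cells exposed to compound 30 min at 37 °C, then stimulated with adenosine a further 30 min, cAMP read after 60 min at room temperature.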 Conditions: read-out: cAMP & FLIPR IC50 (nM) hA2b. It counts as cell-based.
Sequence of hA2b/CHO (P29275 whole entry): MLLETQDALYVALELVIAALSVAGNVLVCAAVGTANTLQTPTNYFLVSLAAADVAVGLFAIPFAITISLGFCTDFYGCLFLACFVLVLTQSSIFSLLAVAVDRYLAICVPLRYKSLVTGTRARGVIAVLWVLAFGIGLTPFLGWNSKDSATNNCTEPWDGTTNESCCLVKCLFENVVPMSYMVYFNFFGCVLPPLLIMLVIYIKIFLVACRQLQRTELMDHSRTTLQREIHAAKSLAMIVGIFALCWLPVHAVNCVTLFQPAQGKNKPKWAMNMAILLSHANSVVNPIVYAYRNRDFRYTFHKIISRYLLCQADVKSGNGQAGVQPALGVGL
Method: as §1
The target in experiment [4] is mA2a/CHO (Mus musculus (Mouse), UniProt Q60613). The experiment in a line: cAMP inhibition assay in mA2a/CHO cells, 10 μM adenosine.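 Further: compounds preincubated 30 min at 37 °C before the adenosine challenge, then 30 min further stimulation, readout after 60 min detection reagent incubation at room temperature in 384-well plates.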 It counts as cell-based. Conditions: read-out: cAMP & FLIPR IC50 (nM) mA2a.
Sequence of mA2a/CHO (Q60613 whole entry): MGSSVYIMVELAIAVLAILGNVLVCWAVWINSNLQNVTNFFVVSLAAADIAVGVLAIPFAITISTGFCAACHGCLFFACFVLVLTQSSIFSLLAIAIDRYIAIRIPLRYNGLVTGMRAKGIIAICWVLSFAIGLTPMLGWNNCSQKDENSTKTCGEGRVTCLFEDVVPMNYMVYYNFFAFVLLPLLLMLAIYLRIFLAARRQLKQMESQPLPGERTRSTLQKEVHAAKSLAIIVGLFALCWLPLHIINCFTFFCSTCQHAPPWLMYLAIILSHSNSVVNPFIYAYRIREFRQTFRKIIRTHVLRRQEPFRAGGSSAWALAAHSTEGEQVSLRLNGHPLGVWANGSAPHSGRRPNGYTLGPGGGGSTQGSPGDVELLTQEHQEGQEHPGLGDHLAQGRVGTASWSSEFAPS
Method: as §1

Sequence of hADORA1/CHO (hA1 expressing) cells (P30542 whole entry): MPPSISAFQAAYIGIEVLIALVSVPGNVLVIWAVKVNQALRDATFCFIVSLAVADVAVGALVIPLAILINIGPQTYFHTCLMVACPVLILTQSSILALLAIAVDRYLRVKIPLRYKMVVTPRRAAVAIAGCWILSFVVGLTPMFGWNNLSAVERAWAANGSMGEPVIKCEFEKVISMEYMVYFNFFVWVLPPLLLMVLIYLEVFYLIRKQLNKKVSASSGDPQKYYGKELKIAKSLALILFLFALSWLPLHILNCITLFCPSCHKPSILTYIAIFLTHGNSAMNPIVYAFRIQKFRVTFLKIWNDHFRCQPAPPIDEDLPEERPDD

Broadly, the IC50 is the midpoint of a concentration-inhibition curve. On to `CN1CCCC1CNC(=O)c1nc(-c2ccc3ncc(Cl)n3c2)c(-c2ncco2)nc1N` (stereo in doubt) [Cmpd. 209, 3-amino-6-[3-chloroimidazo[1,2-a]pyridin-6-yl]-N-[[(2S)-1-methylpyrrolidin-2-yl]methyl]-5-(1,3-oxazol-2-yl)pyrazine-2-carboxamide], for which the IC50 in experiment [1] is more than 10000 nM; in experiment [2], 14 nM; in experiment [3] it was 1260 nM; in experiment [4], 134 nM.
Take `Nc1nc(-c2ncco2)c(-c2ccc(=O)n(C3COC3)c2)nc1C(=O)NCc1c(F)cccc1F` [Example 42, 3-amino-N-[(2,6-difluorophenyl)methyl]-5-(1,3-oxazol-2-yl)-6-[1-(oxetan-3-yl)-6-oxo-1,6-dihydropyridin-3-yl]pyrazine-2-carboxamide]: the half-maximal inhibitory concentration (IC50) in experiment [1] was 51 nM; in experiment [2], 14 nM; in experiment [3] it was 102 nM; in experiment [4], 16 nM.
`COc1ccccc1CNC(=O)c1nc(-c2ccc(=O)n(C)c2)c(-c2ccc(F)cc2)nc1N` [Example 67, 3-amino-5-(4-fluorophenyl)-N-(2-methoxybenzyl)-6-(1-methyl-6-oxo-1,6-dihydropyridin-3-yl)pyrazine-2-carboxamide]: the half-maximal inhibitory concentration (IC50) in experiment [2] is 6.4 nM; in experiment [3], 67 nM; in experiment [4], 25 nM.
In the same order, the values of `COc1ccccc1CNC(=O)c1nc(-c2cc(C)nc(C)c2)c(-c2ccc(F)cc2)nc1N` [Example 89, 3-amino-6-(2,6-dimethylpyridin-4-yl)-5-(4-fluorophenyl)-N-(2-methoxybenzyl)pyrazine-2-carboxamide] are 17 nM, 5620 nM and 297 nM.
`COc1ccccc1CNC(=O)c1nc(-c2cc(C)nc(Cl)c2)c(-c2ccc(F)cc2)nc1N` [Example 68, 3-amino-6-(2-chloro-6-methylpyridin-4-yl)-5-(4-fluorophenyl)-N-(2-methoxy-benzyl)pyrazine-2-carboxamide]: the figures for the IC50 in experiment [2], in experiment [3] and in experiment [4] were 7.5 nM, 952 nM and 64 nM, respectively.
In the same order, the values of `Cc1ccn(-c2nc(N)c(C(=O)Nc3ccccc3OC(F)F)nc2-c2ccc(=O)n(C)c2)n1` [Example 59, 3-amino-N-(2-(difluoromethoxy)phenyl)-5-(3-methyl-1H-pyrazol-1-yl)-6-(1-methyl-6-oxo-1,6-dihydropyridin-3-yl)pyrazine-2-carboxamide] are 29 nM, not below 10000 nM and 66 nM.
In the same order, the values of `COc1ccccc1CNC(=O)c1nc(-c2cc(C)nc(C)c2)c(-c2ccccc2)nc1N` [Example 93, 3-amino-6-(2,6-dimethylpyridin-4-yl)-N-(2-methoxybenzyl)-5-phenylpyrazine-2-carboxamide] are 8 nM, 354 nM and 127 nM.
In the same order, the values of `Cc1cc(-c2nc(C(=O)NCc3c(F)cccc3F)c(N)nc2-c2cnn(C)c2)cc(C)n1` [Example 64, 3-amino-N-(2,6-difluorobenzyl)-6-(2,6-dimethylpyridin-4-yl)-5-(1-methyl-1H-pyrazol-4-yl)pyrazine-2-carboxamide] are 52 nM, not below 10000 nM and not below 10000 nM.
In the case of `Cc1cnc2ccc(-c3nc(C(=O)NCC4CCCCN4C)c(N)nc3-c3ncco3)cn12` (single isomer, unassigned; isomer 2) [Example 125, 3-amino-6-(3-methylimidazo[1,2-a]pyridin-6-yl)-N-((1-methylpiperidin-2-yl)methyl)-5-(oxazol-2-yl)pyrazine-2-carboxamide (isomer 2)], the half-inhibitory concentration (IC50) was 1440 nM in experiment [2], not below 10000 nM in experiment [3] and not below 10000 nM in experiment [4].
`COc1ccccc1CNC(=O)c1nc(-c2cc(C)nc(C)c2)c(-c2cnn(C)c2)nc1N` [Example 63, 3-amino-6-(2,6-dimethylpyridin-4-yl)-N-(2-methoxybenzyl)-5-(1-methyl-1H-pyrazol-4-yl)pyrazine-2-carboxamide]: the IC50 in experiment [2] was 33 nM; in experiment [3], not below 10000 nM; in experiment [4], 601 nM.
With `COc1ccc(F)cc1CNC(=O)c1nc(-c2cc(C)nc(C)c2)c(-c2ccc(F)cc2)nc1N` [Example 92, 3-amino-6-(2,6-dimethylpyridin-4-yl)-N-(5-fluoro-2-methoxybenzyl)-5-(4-fluorophenyl)pyrazine-2-carboxamide], the IC50 in experiment [2] is 41 nM; in experiment [3], not below 10000 nM; in experiment [4] it was 216 nM.
On to `COc1ccccc1CNC(=O)c1nc(-c2cc(C)c(=O)n(C)c2)c(-c2ccc(F)cc2)nc1N` [Example 82, 3-amino-6-(1,5-dimethyl-6-oxo-1,6-dihydropyridin-3-yl)-5-(4-fluorophenyl)-N-(2-methoxybenzyl)pyrazine-2-carboxamide], for which the half-maximal inhibitory concentration (IC50) in experiment [2] was determined as 19 nM; in experiment [3] it was 276 nM; in experiment [4] it was 59 nM.
Take `Cc1cnc2ccc(-c3nc(CNC(=O)[C@H]4CCCN4C)c(N)nc3-c3ccc(F)cc3)cn12` [Example 157, (2R)—N-[[3-amino-5-(4-fluorophenyl)-6-[3-methylimidazo[1,2-a]pyridin-6-yl]pyrazin-2-yl]methyl]-1-methylpyrrolidine-2-carboxamide]: the values for the IC50 in experiment [2], in experiment [3] and in experiment [4] were 0.3 nM, 59 nM and 2.9 nM, respectively.
Consider `Cc1cc(-c2nc(C(=O)NCc3ccccc3OC(F)F)c(N)nc2-c2ccc(F)cc2)cc(C)n1` [Example 91, 3-amino-N-(2-(difluoromethoxy)benzyl)-6-(2,6-dimethylpyridin-4-yl)-5-(4-fluorophenyl)pyrazine-2-carboxamide], for which the half-inhibitory concentration (IC50) came to 8.9 nM in experiment [2], 1420 nM in experiment [3] and 72 nM in experiment [4].
In the same order, the values of `COc1ncccc1CNC(=O)c1nc(-c2cc(C)nc(C)c2)c(-c2ccc(F)cc2)nc1N` [Example 66, 3-amino-6-(2,6-dimethylpyridin-4-yl)-5-(4-fluorophenyl)-N-((2-methoxypyridin-3-yl)methyl)pyrazine-2-carboxamide] are 107 nM, not below 10000 nM and 730 nM.
Take `Nc1nc(-c2ccc(F)cc2)c(-c2ccc(=O)n(C3COC3)c2)nc1C(=O)NCc1c(F)cccc1F` [Example 77]: the half-maximal inhibitory concentration (IC50) in experiment [2] worked out at 17 nM; in experiment [3] it was 358 nM; in experiment [4] it was 26 nM.
In the same order, the values of `Cc1cc(-c2nc(C(=O)NCc3ccccc3C(F)(F)F)c(N)nc2-c2ccc(F)cc2)cc(C)n1` [Example 53, 3-amino-6-(2,6-dimethylpyridin-4-yl)-5-(4-fluorophenyl)-N-(2-(trifluoromethyl)benzyl)pyrazine-2-carboxamide] are 60 nM, not below 10000 nM and 529 nM.
As for `Cc1cc(-c2nc(C(=O)NCc3ncccc3F)c(N)nc2-c2ccc(F)cc2)cc(C)n1` [Example 1, 3-amino-6-(2,6-dimethylpyridin-4-yl)-5-(4-fluorophenyl)-N-((3-fluoropyridin-2-yl)methyl)pyrazine-2-carboxamide], the concentration for half-maximal inhibition (IC50) in experiment [2] is 151 nM; in experiment [3], not below 10000 nM; in experiment [4] it was 1060 nM.
